Laboratory results: patent publication US8815900B2, “Compounds and compositions for reducing lipid levels” (CVI Pharmaceuticals Limited, priority 2007, dated 2014)
Where “and” joins values, the source holds several entries; their conditions need not be identical. Equal entries are not always repeated.

Assays:
[1] = Pharmacokinetics of CRDL in male hamsters following intravenous and oral administration; type: in vivo; conditions: for F: PO (20 mg/kg) vs IV (2 mg/kg)
Method: The plasma concentration of CRDL was determined in male hamsters following intravenous or oral administration. Hamsters were given CRDL at 2 mg/kg i.v. or 20 mg/kg p.o. Blood samples were collected at the indicated time points and the plasma was isolated.

[2] = system: LDLR mRNA expression in HepG2 cells; assay: LDLR mRNA expression in HepG2 cells, semi-quantitative RT-PCR; type: cell-based, Human; conditions: 8 hours, indicated doses, corrected by GAPDH mRNA (FIG. 3)
Method: HepG2 cells obtained from American Tissue Culture Collection (Manassas, Va., USA) were seeded in 6-well culture plates at a density of 0.8×10^6 cells/well cultured in EMEM containing 0.5% FBS and were treated with each purified compound at indicated doses for 8 hours. Total RNA was isolated, and 2 μg per sample was reverse transcribed with random primers using M-MLV (Promega) at 37° C. for 1 hour. PCR was carried out at 94° C. for 30 sec, 60° C. for 30 sec, and 72° C. for 30 sec with initial activation of the enzyme at 94° C. for 1 minute. Thirty cycles were performed for LDLR and GAPDH. PCR was performed using primers HLDLR-up and HLDLR-lo for LDLR and primers HGAPDH-up and HGAPDH-lo for GAPDH. The PCR products were separated on a 1% agarose gel and the band intensity was quantitated. LDLR mRNA levels were corrected by measuring GAPDH mRNA levels.
After the treatment, a portion of cells was harvested for total RNA, and another portion of cells was used for TG measurement. The LDLR mRNA levels were assessed by semi quantitative RT-PCR, and the cellular TG content was determined as described above.

[3] = system: hypercholesterolemic hamsters; assay: In vivo lipid lowering of (14R,13S)-CRDL in hamsters on high cholesterol diet; set-up: species or system Golden Syrian male hamsters; conditions: 10 mg/kg daily i.p., 17 days
Method: In another experiment, 18 Golden Syrian male hamsters under a high cholesterol (HC) diet were divided into two treatment groups of i.p. One group was treated with (14R,13S)-CRDL at a daily dose of 10 mg/kg and the control group received equal amount of vehicle.
The HC diet markedly damaged the liver function of the hamsters, which was evident by elevated alanine aminotransaminase (ALT) and aspartate aminotransaminase (AST) in blood. (14R,13S)-CRDL treatment ameliorated the liver function under the HC diet and lowered the serum level of ALT by 60% and lowered the serum level of AST by 30% compared to control (FIG. 10B).

[4] = system: LDLR ligand uptake activity in HepG2 cells; assay: DiI-LDL uptake (LDLR ligand uptake activity) in HepG2 cells; type: cell-based, Human; conditions: 20 hours, B, compound dose ≦ 40 μM; note: key: +: slightly increased fluorescent intensity over control; ++: modestly increased fluorescent intensity over control; +++: strongly increased fluorescent intensity over control
Method: HepG2 cells (2×10^5 cells/well) in 24-well culture plates were treated with various compounds at indicated concentrations for 20 hours. The fluorescent 1,1′-dioctadecyl-3,3,3′,3′-tetramethylindocarbocyanin perchlorate (DiI-LDL) (Biomedical Technologies, Stoughton, Mass.) at a concentration of 2 μg/mL was added to cells at the end of treatment. After 4 hours, the medium was removed, cells were washed with cold PBS, and were examined immediately under a fluorescent microscope (Nikon) at 200× amplification. The fluorescent intensity in compound-treated cells was compared to that in untreated control cells. […] In these experiments berberine chloride was used for comparison.

[5] = IV (2 mg/kg), individual hamsters H1-H3, 2 mg/kg
[6] = PO (20 mg/kg), individual hamsters H4-H6, 20 mg/kg
[7] = HC diet, compared to untreated group

## COc1cc2c(cc1OC)[C@H]1[C@@H](C)c3ccc(OC)c(OC)c3CN1CC2 [CRDL, 14R,13S-(+)-corydaline]
[1]; IV 2 mg/kg, 0.083 hr, individual hamsters H1-H3, 2 mg/kg
  Concentration in plasma: 621.33 ng/mL and 520.38 ng/mL and 641.16 ng/mL
[1]; IV 2 mg/kg, 0.083 hr, mean
  Concentration in plasma: 594.29 ng/mL
[1]; IV 2 mg/kg, 0.25 hr, individual hamsters H1-H3, 2 mg/kg
  Concentration in plasma: 255.56 ng/mL and 350.21 ng/mL and 318.96 ng/mL
[1]; IV 2 mg/kg, 0.25 hr, mean
  Concentration in plasma: 308.25 ng/mL
[1]; IV 2 mg/kg, 0.5 hr, individual hamsters H1-H3, 2 mg/kg
  Concentration in plasma: 124.95 ng/mL and 165.87 ng/mL and 130.79 ng/mL
[1]; IV 2 mg/kg, 0.5 hr, mean
  Concentration in plasma: 140.54 ng/mL
[1]; IV 2 mg/kg, 1 hr, individual hamsters H1-H3, 2 mg/kg
  Concentration in plasma: 60.71 ng/mL and 69.78 ng/mL and 69.09 ng/mL
[1]; IV 2 mg/kg, 1 hr, mean
  Concentration in plasma: 66.53 ng/mL
[1]; IV 2 mg/kg, 2 hr, individual hamsters H1-H3, 2 mg/kg
  Concentration in plasma: 23.92 ng/mL and 19.37 ng/mL and 27.99 ng/mL
[1]; IV 2 mg/kg, 2 hr, mean
  Concentration in plasma: 23.76 ng/mL
[1]; IV 2 mg/kg, 6 hr, individual hamsters H1-H3, 2 mg/kg
  Concentration in plasma: 6.34 ng/mL and 4.76 ng/mL and 4.67 ng/mL
[1]; IV 2 mg/kg, 6 hr, mean
  Concentration in plasma: 5.25 ng/mL
[1]; IV 2 mg/kg, 24 hr, individual hamsters H1-H3
  Concentration in plasma: BLQ
[1]; IV (2 mg/kg), individual hamsters H1-H3
  Tmax: 0.08 h
[1]; [5]
  AUC(0-t): 364.46 ng·h/mL and 335.91 ng·h/mL and 336.84 ng·h/mL
  AUC(0-∞): 374 ng·h/mL and 351 ng·h/mL and 345 ng·h/mL
  CLz: 89.2 mL/min/kg and 95 mL/min/kg and 96.7 mL/min/kg
  Cmax: 641.16 ng/mL and 621.33 ng/mL and 520.38 ng/mL
  MRT(0-∞): 0.98 h and 1.17 h and 0.94 h
  Vz: 10.44 L/kg and 13.64 L/kg and 9.96 L/kg
  t1/2z: 1.35 h and 1.66 h and 1.19 h
[1]; IV (2 mg/kg), mean
  AUC(0-t): 345.74 ng·h/mL
  AUC(0-∞): 357 ng·h/mL
  Cmax: 594.29 ng/mL
  MRT(0-∞): 1.03 h
  Tmax: 0.08 h
  Vz: 11.35 L/kg
  t1/2z (half life): 1.4 h
[1]; IV (2 mg/kg), mean, 2 mg/kg
  CLz (clearance): 93.3 mL/min/kg and 93.7 mL/min/kg
[1]; PO 20 mg/kg, 0.25 hr, individual hamsters H4-H6, 20 mg/kg
  Concentration in plasma: 1263.21 ng/mL and 895.64 ng/mL and 1308.39 ng/mL
[1]; PO 20 mg/kg, 0.25 hr, mean
  Concentration in plasma: 1155.75 ng/mL
[1]; PO 20 mg/kg, 0.75 hr, individual hamsters H4-H6, 20 mg/kg
  Concentration in plasma: 369.71 ng/mL and 164.19 ng/mL and 217.42 ng/mL
[1]; PO 20 mg/kg, 0.75 hr, mean
  Concentration in plasma: 250.44 ng/mL
[1]; PO 20 mg/kg, 1 hr, individual hamsters H4-H6, 20 mg/kg
  Concentration in plasma: 254.54 ng/mL and 146.76 ng/mL and 199.83 ng/mL
[1]; PO 20 mg/kg, 1 hr, mean
  Concentration in plasma: 200.37 ng/mL
[1]; PO 20 mg/kg, 2 hr, individual hamsters H4-H6, 20 mg/kg
  Concentration in plasma: 98.97 ng/mL and 62.78 ng/mL and 81.27 ng/mL
[1]; PO 20 mg/kg, 2 hr, mean
  Concentration in plasma: 81.01 ng/mL
[1]; PO 20 mg/kg, 6 hr, individual hamsters H4-H6, 20 mg/kg
  Concentration in plasma: 14.54 ng/mL and 9.66 ng/mL and 20.83 ng/mL
[1]; PO 20 mg/kg, 6 hr, mean
  Concentration in plasma: 15.01 ng/mL
[1]; PO 20 mg/kg, 8 hr, individual hamsters H4-H6, 20 mg/kg
  Concentration in plasma: 10.93 ng/mL and 6.80 ng/mL and 18.54 ng/mL
[1]; PO 20 mg/kg, 8 hr, mean
  Concentration in plasma: 12.09 ng/mL
[1]; PO 20 mg/kg, 24 hr, individual hamsters H4-H6, 20 mg/kg
  Concentration in plasma: 3.41 ng/mL and 2.64 ng/mL and 3.12 ng/mL
[1]; PO 20 mg/kg, 24 hr, mean
  Concentration in plasma: 3.04 ng/mL
[1]; individual hamsters H4-H6
  F: 34.56% and 22.28% and 33.19%
[1]; mean
  F: 30.01%
[1]; PO (20 mg/kg), individual hamsters H4-H6
  Tmax: 0.25 h
[1]; [6]
  AUC(0-t): 1188.19 ng·h/mL and 756.88 ng·h/mL and 1154.55 ng·h/mL
  AUC(0-∞): 1230 ng·h/mL and 795 ng·h/mL and 1180 ng·h/mL
  Cmax: 1263.21 ng/mL and 895.64 ng/mL and 1308.39 ng/mL
  MRT(0-∞): 3.41 h and 3.96 h and 3.37 h
  t1/2z: 8.94 h and 10.13 h and 6.43 h
[1]; PO (20 mg/kg), mean
  AUC(0-t): 1033.21 ng·h/mL
  AUC(0-∞): 1070 ng·h/mL
  Cmax: 1155.75 ng/mL
  MRT(0-∞): 3.58 h
  Tmax: ~0.25 h
  t1/2z: 8.50 h
[2]
  LDLR mRNA expression: potent and dose-dependent effects
[3]
  adverse effects during the drug treatment: no adverse effects were observed
[3]; HC diet
  blood level of glucose: not changed
  blood level of urea nitrogen (BUN): not changed
[3]; HC diet, compared to control
  lowering of serum level of ALT: 60%
  lowering of serum level of AST: 30%
[3]; [7]
  reduction of plasma TC: 41.9%
  reduction of plasma TG: 46.0%
  reduction of plasma non-HDL-c: 50%
[3]; HC diet, p<0.001
  reduction of level of creatinine (CREA): 20%
[4]
  Activity on DiI-LDL uptake: ++
